Reference: patent publication US20120053170A1, “NICOTINAMIDE DERIVATIVES, PREPARATION THEREOF, AND THERAPEUTIC USE THEREOF AS ANTICANCER DRUGS” (SANOFI, priority 2009, published 2012)

Test system: HCT116 tumour line (ATCC-CCL247)
Experiment: MTS cell proliferation and viability test on the HCT116 tumour line
Type: cell-based
Conditions: Homo sapiens, HCT-116, incubating the test compound for 72 hours, read-out: IC50 (concentration of compound which results in a 50% loss of cell proliferation and viability)
Protocol: They were tested in vitro on the HCT116 tumour line (ATCC-CCL247). […] In this test, the mitochondrial ability of the living cells to convert MTS to a coloured compound is measured after incubating the test compound for 72 hours.

Structure (SMILES) | IC50
Nc1ccc(CNC(=O)Nc2ccc(-c3ccc(C(=O)NCCN4CCCCC4)c(Nc4ccccc4)n3)cc2F)cn1 [Compound No. 5, 6-{4-[3-(6-Aminopyridin-3-ylmethyl)ureido]-3-fluorophenyl}-2-phenylamino-N-[2-(piperidin-1-yl)ethyl]nicotinamide] | < 1 nM
CCNc1nc(-c2ccc(NC(=O)NCc3ccc(N)nc3)cc2F)ccc1C(=O)NCCN1CCCCC1 [Compound No. 11, 6-{4-[3-(6-Aminopyridin-3-ylmethyl)ureido]-2-fluorophenyl}-2-ethylamino-N-[2-(piperidin-1-yl)ethyl]nicotinamide] | < 1 nM
CCNc1nc(-c2ccc(NC(=O)NCc3ccc(N)nc3)c(F)c2)ccc1C(=O)NCCN1[C@H](C)CCC[C@@H]1C [Compound No. 19, 6-{4-[3-(6-Aminopyridin-3-ylmethyl)ureido]-3-fluorophenyl]-N-[2-(cis-2,6-dimethylpiperidin-1-yl)ethyl]-2-(ethylamino)nicotinamide] | < 1 nM
CCNc1nc(-c2ccc(NC(=O)NCc3cccnc3)c(F)c2)ccc1C(=O)NCCN1CCCCC1 [Compound No. 27, 2-Ethylamino-6-{3-fluoro-4-[3-(pyridin-3-ylmethyl)ureido]phenyl}-N-[2-(piperidin-1-yl)ethyl]nicotinamide] | < 1 nM
